Data taken from PubChem BioAssay AID1996.
≈ marks a conversion by molar mass, not a printed value.

Conditions: buffer; pH 7.4; 200.0 µM
`C=CCn1c(=O)c(C(=O)Nc2cc(C)ccn2)c(O)c2ccccc21` gave a solubility kinetic of under 0.2 µg/mL. `O=C(Nc1cccc(Cl)c1)Nc1sccc1-c1nc2ccccc2s1` showed a solubility kinetic of 4.5 µg/mL (≈ 11.7 µM). For `Cc1csc(SCC(=O)NC(C)C2CC3CCC2C3)n1` (stereo unspecified), the solubility kinetic was over 46.6 µg/mL. `CC(C)(C)C(=O)O/N=C(\N)c1ccc(Br)cc1` showed a solubility kinetic of 30.3 µg/mL (≈ 101 µM). With `Cc1ccc(-n2c(-c3ccccc3)c[nH]c2=S)cc1` the solubility kinetic was 0.6 µg/mL (≈ 2.25 µM). Molecule `COc1ccc(OCCSc2nc(N)cc(=O)[nH]2)cc1` has a solubility kinetic of 20.7 µg/mL (≈ 70.6 µM). In the case of `Cc1ccccc1OCC(=O)NCCNC(=O)c1ccccn1`, the solubility kinetic is reported as over 47 µg/mL. `CCCCCCCCCCOC(=O)NC1CCS(=O)(=O)C1` (stereo unspecified) gave a solubility kinetic of 1.1 µg/mL (≈ 3.44 µM). Work on `CC(C)c1ccc(NC(=O)CCc2ccccc2)cc1` yielded a solubility kinetic of 3.9 µg/mL (≈ 14.6 µM). Molecule `CN(C(=O)COC(=O)c1cc2ccccc2cc1O)c1ccccc1` has a solubility kinetic of 3.4 µg/mL (≈ 10.1 µM). `O=C(COC(=O)c1cc(F)cc(F)c1)NCCCc1ccccc1` showed a solubility kinetic of 3.7 µg/mL (≈ 11.1 µM). In the case of `CCCCN1C(=O)C(=O)N(CC(=O)Nc2ccc(OC(F)(F)F)cc2)C1=O`, the solubility kinetic is reported as 6.6 µg/mL (≈ 17 µM). Molecule `COc1c(C(=O)Nc2ccc(Br)cn2)ccc2ccccc12` has a solubility kinetic of under 0.4 µg/mL. For `CN1CCC(NC(=O)c2cccc(Oc3ccccc3)c2)CC1`, the solubility kinetic was over 46.6 µg/mL. Molecule `CC(Sc1nncn1C)C(=O)NCCC1=CCCCC1` (stereo unspecified) has a solubility kinetic of over 44.2 µg/mL. Molecule `O=S(=O)(Nc1ccc(Nc2ccccc2)cc1)c1ccc(F)cc1` has a solubility kinetic of 3.5 µg/mL (≈ 10.2 µM). For `COc1ccc2cc(C(=O)N3CCN(c4cccc(C)c4C)CC3)[nH]c2c1`, the solubility kinetic was 1.2 µg/mL (≈ 3.3 µM). Work on `COC(=O)C1=CNC=C(C(=O)OC)C1c1cccc2ccccc12` yielded a solubility kinetic of 2.6 µg/mL (≈ 8.04 µM). Work on `CN(C)c1nc(-c2ccccc2)ns1` yielded a solubility kinetic of 12.5 µg/mL (≈ 60.9 µM). Work on `O=C(Cc1ccc([N+](=O)[O-])cc1)c1ccc(O)cc1O` yielded a solubility kinetic of over 41 µg/mL. With `Cc1ccc(NS(=O)(=O)c2cccs2)c(C)c1` the solubility kinetic was 39.1 µg/mL (≈ 146 µM). Molecule `CCCc1cnc(N2CCN(C(=O)c3ccc(F)cc3)CC2)nc1` has a solubility kinetic of over 49.3 µg/mL. Work on `CN1CCCN(C(=O)COc2ccc(Br)cc2)CC1` yielded a solubility kinetic of 44.7 µg/mL (≈ 137 µM). With `COc1ccc2nc(SCC(=O)NC3CCCCC3)[nH]c2c1` the solubility kinetic was over 47.9 µg/mL. `O=C(NCC(c1cccs1)N1CCOCC1)c1cnc(Cl)c(Cl)c1` (stereo unspecified) gave a solubility kinetic of over 57.9 µg/mL. In the case of `O=C(CSc1cccc[n+]1[O-])Nc1ccc(Br)cc1Br`, the solubility kinetic is reported as 6.7 µg/mL (≈ 16 µM). In the case of `Cl.c1ccc(NCc2cccc3ccccc23)nc1`, the solubility kinetic is reported as 4.1 µg/mL. With `Cc1cc(C)c(S(=O)(=O)NCc2ccccn2)cc1C` the solubility kinetic was over 43.6 µg/mL. Work on `CC(=O)N1C(C)(C)CC(=NOC(=O)c2ccccc2)CC1(C)C` yielded a solubility kinetic of 47.1 µg/mL (≈ 149 µM). In the case of `O=C(NCCNc1ccccc1[N+](=O)[O-])c1cc(F)c(F)cc1Cl`, the solubility kinetic is reported as 1.2 µg/mL (≈ 3.37 µM). `CCCCC(CC)COCCCN=Cc1c(O)[nH]c(=S)[nH]c1=O` (stereo unspecified) gave a solubility kinetic of 4.1 µg/mL (≈ 12 µM). `O=C(COC(=O)c1ccco1)NC12CC3CC(CC(C3)C1)C2` gave a solubility kinetic of 2.2 µg/mL (≈ 7.25 µM). Work on `COCCSc1ccccc1C(=O)Nc1ccc(Cl)cc1` yielded a solubility kinetic of 44.1 µg/mL (≈ 137 µM). For `Cc1nn(C)c(Sc2ccccn2)c1[N+](=O)[O-]`, the solubility kinetic was over 37.5 µg/mL. In the case of `O=C(Nc1c(-c2ccc(F)cc2)nc2ccccn12)c1ccc(F)cc1`, the solubility kinetic is reported as 3.3 µg/mL (≈ 9.45 µM). Molecule `Cc1ccc(S(=O)(=O)CC(=O)Nc2cccc(C)n2)cc1` has a solubility kinetic of 11.5 µg/mL (≈ 37.8 µM). In the case of `N#Cc1c(-c2ccccc2)ccnc1N1CCOCC1`, the solubility kinetic is reported as 17.6 µg/mL (≈ 66.3 µM). For `NC(=O)NC(CC(=O)NCCc1ccccn1)c1ccccc1Cl` (stereo unspecified), the solubility kinetic was over 52 µg/mL. `CC(=O)Nc1ccc(S(=O)(=O)NCCC(=O)Nc2cc(C)ccn2)cc1` showed a solubility kinetic of over 56.5 µg/mL. With `CC(C)CN1C(=O)C(=O)N(CC(=O)c2ccc[nH]2)C1=O` the solubility kinetic was 40.7 µg/mL (≈ 147 µM). `O=C(O)/C=C/c1cccc(NC(=O)c2ccccc2)c1` gave a solubility kinetic of 34 µg/mL (≈ 127 µM). Work on `COc1ccc(/C=N/NC(=O)c2cc[n+]([O-])cc2)cc1OC` yielded a solubility kinetic of over 45.2 µg/mL. Molecule `c1ccc(-c2cccc(-c3ccccc3)n2)cc1` has a solubility kinetic of under 0.5 µg/mL. `COc1ccc([N+](=O)[O-])c(OC)c1C(=O)Nc1ccc(F)cc1F` showed a solubility kinetic of 33.9 µg/mL (≈ 100 µM). In the case of `Cc1ccc(/C=C/C(=O)NCCc2cccc(Cl)c2)o1`, the solubility kinetic is reported as 5.1 µg/mL (≈ 17.6 µM). `CC(=O)c1c(C)[nH]c(C(=O)OCC(=O)c2ccc3c(c2)NC(=O)CO3)c1C` showed a solubility kinetic of 10.5 µg/mL (≈ 28.4 µM). With `O=C(NCC(=O)N1CCN(S(=O)(=O)c2ccc3c(c2)OCCO3)CC1)c1ccccc1F` the solubility kinetic was 10.2 µg/mL (≈ 22 µM). `C=CCn1c(SCC(N)=O)nc2nc3c(cc2c1=O)COC(C)(C)C3` showed a solubility kinetic of 46.6 µg/mL (≈ 129 µM). `COc1ccccc1CN(C)C(=O)c1ccc(S(=O)(=O)Nc2c(C)n(C)n(-c3ccccc3)c2=O)cc1` showed a solubility kinetic of over 78.1 µg/mL. With `CCNC(=O)c1c(O)c2c([nH]c1=O)CCCC2` the solubility kinetic was 3 µg/mL (≈ 12.7 µM). Molecule `COc1ccc(N2CCN(CCc3ccncc3)CC2)cc1` has a solubility kinetic of over 44.6 µg/mL. Molecule `COc1ccc(C(=O)CCNc2ccc(F)cc2)cc1` has a solubility kinetic of under 0.6 µg/mL. Molecule `CCC(=O)NC(c1ccc(C)cc1)c1ccc2cccnc2c1O` (stereo unspecified) has a solubility kinetic of 1.6 µg/mL (≈ 4.99 µM). In the case of `Cc1c(C(=O)NC2CCCc3ccccc32)cccc1[N+](=O)[O-]` (stereo unspecified), the solubility kinetic is reported as 6.1 µg/mL (≈ 19.7 µM). With `COc1ccc(NS(=O)(=O)c2cn(C)nc2C)cc1` the solubility kinetic was over 42.2 µg/mL. Molecule `COc1ccc(NC(=O)c2ccccc2-c2ccccc2)c(C)c1` has a solubility kinetic of 7.2 µg/mL (≈ 22.7 µM). With `Cc1ccc(OCC(=O)O/N=C(\N)c2ccccn2)cc1C` the solubility kinetic was 38.1 µg/mL (≈ 127 µM). Molecule `Cc1ccc(C)c(NC(=O)N2CCCCCC2)c1` has a solubility kinetic of over 37 µg/mL. With `Cc1cc(SC2CCOC2=O)nc2ccccc12` (stereo unspecified) the solubility kinetic was 35.5 µg/mL (≈ 137 µM). Work on `C=Cc1ccc(Cn2c(C(=O)O)c(C=O)c3ccccc32)cc1` yielded a solubility kinetic of over 45.8 µg/mL. `O=C1CSC(c2ccc(F)cc2)N1c1ccccc1F` (stereo unspecified) showed a solubility kinetic of 36.8 µg/mL (≈ 126 µM). `O=c1[nH]cccc1-c1nc2cc(Cl)ccc2n1Cc1ccccc1` showed a solubility kinetic of 5.7 µg/mL (≈ 17 µM). `CCN1C(=O)c2cccc3c(S(=O)(=O)N(C(C)=O)c4ccc(OC(C)=O)cc4)ccc1c23` showed a solubility kinetic of 4.3 µg/mL (≈ 9.5 µM). In the case of `Cc1ccc2c(c1)sc1nc(=O)ccn12`, the solubility kinetic is reported as over 32.4 µg/mL. `O=C(CSc1nc2ccccc2c(=O)n1CCCO)NC1CC1` gave a solubility kinetic of over 50 µg/mL. For `COc1ccc(C23NCCN2C(=O)c2ccccc23)cc1` (stereo unspecified), the solubility kinetic was over 42 µg/mL. Work on `Cc1c(C(=O)Oc2cccc3cccnc23)cccc1[N+](=O)[O-]` yielded a solubility kinetic of 7.9 µg/mL (≈ 25.6 µM). `Cl.NCCSSCCN` showed a solubility kinetic of 31.6 µg/mL. `CCCCOc1ccc(C2(C)NC(=O)NC2=O)cc1` (stereo unspecified) gave a solubility kinetic of 31.2 µg/mL (≈ 119 µM). `COc1ccc(NC(=O)c2ccc(NC(=O)CN3CCC(C(N)=O)CC3)cc2)cc1` gave a solubility kinetic of 8.1 µg/mL (≈ 19.7 µM). With `O=S1(=O)N=C(c2ccccc2)c2ccccc21` the solubility kinetic was 34.7 µg/mL (≈ 143 µM). Work on `COc1cccc(N2C(=O)C3CCCN3C2=S)c1` (stereo unspecified) yielded a solubility kinetic of over 39.3 µg/mL. `CC(Oc1ccc(Br)cc1Br)C(=O)Nc1cccnc1` (stereo unspecified) gave a solubility kinetic of 7.2 µg/mL (≈ 18 µM). In the case of `O=c1c([N+](=O)[O-])cccn1Cc1cccc(Br)c1`, the solubility kinetic is reported as over 46.4 µg/mL. For `CCOC(=O)C1(Cc2ccccc2)CCCN(CCO)C1` (stereo unspecified), the solubility kinetic was over 43.7 µg/mL. Work on `CCOc1ccc2nc(N(CCN(C)C)C(=O)c3cc4ccccc4cc3OC)sc2c1.Cl` yielded a solubility kinetic of 4.2 µg/mL. Work on `Cc1cccc2cc(/C=C/C(=O)c3ccco3)c(Cl)nc12` yielded a solubility kinetic of 3.9 µg/mL (≈ 13.1 µM). `O=C(/C=C/c1ccc(F)cc1)NC(=S)NC1CCCCC1` gave a solubility kinetic of 0.5 µg/mL (≈ 1.63 µM). For `CCN(CC(=O)Nc1c(F)cccc1F)C(=O)C1CC1C` (stereo unspecified), the solubility kinetic was over 44.4 µg/mL. Work on `O=C(Cc1cc2ccccc2o1)NCc1ccc(F)cc1` yielded a solubility kinetic of 5 µg/mL (≈ 17.6 µM). `Cl.c1ccc(C2NCCc3ccccc32)cc1` (stereo unspecified) gave a solubility kinetic of over 36.9 µg/mL. `CCCN(Cc1cc2cc(C)ccc2[nH]c1=O)C(=O)c1ccccn1` showed a solubility kinetic of over 50.3 µg/mL. `CCc1ccccc1OCC(=O)Nc1ccc2c(c1)OCCO2` gave a solubility kinetic of 15.9 µg/mL (≈ 50.7 µM). For `COc1cc2ncnc(NCc3ccco3)c2cc1OC`, the solubility kinetic was 38.9 µg/mL (≈ 136 µM). For `O=C(O)c1ccccc1N(Cc1ccccc1)C(=O)COc1ccccc1`, the solubility kinetic was over 54.2 µg/mL. `CCCS(=O)(=O)N1CCCC(C(=O)Oc2ccc(C)c(C)c2)C1` (stereo unspecified) gave a solubility kinetic of under 0.7 µg/mL.
